Results reported in PubChem BioAssay (NCI).
Where “and” joins values, the source holds several entries; their conditions need not be identical. Identical values can stand only once.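 Assay format: 96-well plates, 48-hour exposure. GI50 = concentration required for 50% inhibition of growth. TGI: total growth inhibition.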

Columns and labels:
Test in all cases: DTP human tumour cell line panel, 48 h
UO-31 renal = test system: UO-31 renal
DU-145 prostate = test system: DU-145 prostate
SF-539 CNS = test system: SF-539 CNS
SF-295 CNS = test system: SF-295 CNS
SW-620 colon = test system: SW-620 colon
HS 578T breast = test system: HS 578T breast
NCI-H460 lung = test system: NCI-H460 lung
LXFL 529 NSCLC = test system: LXFL 529 NSCLC
DMS 114 small cell lung = test system: DMS 114 small cell lung
XF 498 CNS = test system: XF 498 CNS

Row | SMILES | GI50 (UO-31 renal) | TGI (UO-31 renal) [µM] | GI50 (DU-145 prostate) [µM] | TGI (DU-145 prostate) | GI50 (SF-539 CNS) [µM] | TGI (SF-539 CNS) | GI50 (SF-295 CNS) [µM] | TGI (SF-295 CNS) | GI50 (SW-620 colon) [µM] | TGI (SW-620 colon) | GI50 (HS 578T breast) [µM] | TGI (HS 578T breast) [µM] | GI50 (NCI-H460 lung) [µM] | TGI (NCI-H460 lung) | TGI (LXFL 529 NSCLC) [µM] | TGI (DMS 114 small cell lung) [µM] | TGI (XF 498 CNS) [µM]
1 | S=C(Sc1ccc(Cl)cc1)Sc1ccc(Cl)cc1 | 1.31 µM | 2.63 | 3.6 | 11.4 µM | 1.74 | 3.84 µM | 1.01 | 6.58 µM | 1.62 | 3.01 µM | 3.96 | 16.3 | 3.12 | 13.4 µM | – | – | –
2 | COc1ccc(/C=C/C(=O)c2c(-c3ccccc3)nn(C)c(=O)c2N2CCCCC2)cc1 | – | 34.7 | – | – | – | 37.8 µM | – | 44.4 µM | – | > 100 µM | – | – | – | 49.4 µM | 98.8 | 78.4 | –
3 | C#COc1cccc(Nc2ncnc3cc(NC(=O)[C@@H](C)Cl)ccc23)c1 | 17.8 µM | > 62.5 | 16.2 | > 62.5 µM | 8.61 | 46 µM | 8.22 | 61.2 µM | 3.95 | > 62.5 µM | 7.88 | > 62.5 | 7.63 | > 62.5 µM | – | – | –
4 | OC1=CN=C(c2ccccc2)Oc2ccccc21 | – | > 100 | – | – | – | 38.7 µM | – | > 100 µM | – | > 100 µM | – | – | – | > 100 µM | > 100 | > 100 | –
5 | Nc1ncnc2c1c(-c1ccc(Oc3ccccc3)cc1)nn2CC1SSCC1O (stereo unspecified) | 1.22 µM | 5.88 | 4.15 | 9.01 µM | 1.05 | 8.19 µM | 6.36 | 15.8 µM | 1.58 | 32.5 µM | 5.84 | 19.3 | 0.111 | 7.97 µM | – | – | –
6 | C1CN2CCO[SiH](O1)OCC2 | – | > 100 | – | – | – | > 100 µM | – | > 100 µM | – | > 100 µM | – | – | – | > 100 µM | > 100 | > 100 | –
7 | C[C@]12CCc3nc(Nc4ccc(O)cc4)sc3C1=CC[C@@H]1[C@@H]2CC[C@]2(C)/C(=N/NC(N)=S)CC[C@@H]12 | 1.3 µM | 2.57 | 1.64 | 3.15 µM | 1.49 | 3.09 µM | 1.57 | 3.48 µM | 1.29 | 3.26 µM | 1.75 | 6.36 | 0.525 | 1.94 µM | – | – | –
8 | OCc1ccc(-c2ccc(-c3ccc(CO)o3)o2)o1 | > 100 µM | > 100 | > 62.4 | > 100 µM | > 100 | > 100 µM | 23.7 | > 100 µM | > 100 | > 100 µM | > 31.2 | > 62.6 | > 100 | > 100 µM | – | – | –
9 | N=C(N)n1cc(/C=N/N=C(N)N)cn1 | – | > 100 | – | > 100 µM | – | > 100 µM | – | > 100 µM | – | > 100 µM | – | > 100 | – | > 100 µM | – | – | –
10 | O=C1Nc2ccc(-c3cccnc3)cc2/C1=C/c1cc(Br)c(O)c(Br)c1 | 6.54 µM | > 18.3 | 6.28 | > 25 µM | 5.15 | > 22.4 µM | 5.25 | 13.7 µM | 8.23 | > 25 µM | 5.67 | > 22 | 6.97 | > 25 µM | – | – | –
11 | [O-][n+]1c2cccc(O)c2[n+]([O-])c2cccc(O)c21 | – | > 100 | – | > 100 µM | – | > 100 µM | – | > 100 µM | – | > 100 µM | – | > 100 | – | > 100 µM | – | – | –
12 | C[n+]1cn(CC(=O)c2ccccc2)c(C(N)=O)c1N | – | > 100 | – | – | – | > 100 µM | – | > 100 µM | – | 29.4 µM | – | – | – | > 100 µM | > 100 | 64.6 | –
13 | COC(=O)c1ccc(NC(N)=NCCC(C)(C)c2ccc(C(F)(F)F)cc2)nc1 | 2.9 µM | 15.6 | 3.44 | 13.9 µM | 1.74 | 3.53 µM | 1.63 | 3.51 µM | 2.03 | 4.19 µM | 2.98 | 9.9 | 2.06 | 4.56 µM | – | – | –
14 | CCc1ccc(Oc2c(-c3ccc(OCc4ccc(Cl)cc4)cc3O)nn(C)c2C(F)(F)F)cc1 | 0.432 µM | 1.63 | 0.545 | 2.27 µM | 1.77 | 3.75 µM | 0.947 | 2.51 µM | 0.382 | 1.76 µM | 1.5 | 4.92 | 0.356 | 1.31 µM | – | – | –
15 | CC[n+]1c(-c2ccccc2)c2cc(N)ccc2c2ccc(N)cc21 | 21.4 µM and 86.9 µM and 27.2 µM | > 100 | 2 | 13.3 µM and 42 µM | 0.763 | 4.4 µM and 6.43 µM and 6.19 µM | 1.51 | 13.7 µM and 15.5 µM and 29 µM | 1.05 | 16.2 µM and 33.3 µM and 22.2 µM | – | 5.86 | 1.21 | 12.3 µM and 22.5 µM and 22.1 µM | 2.94 | 10.1 | –
16 | O=C(CCCCN1CCN(CCCCC(=O)Nc2ccccc2C#C/C=C\C#Cc2ccccc2C(F)(F)F)CC1)Nc1ccccc1C#C/C=C\C#Cc1ccccc1C(F)(F)F | 11.8 µM | 48 | 17.4 | > 50 µM | 10.2 | 19.3 µM | 19 | > 50 µM | 9.39 | 18.4 µM | 11.2 | 25.3 | 11.2 | 25.5 µM | – | – | –
17 | CCOC(=O)C[C@@]12CCCN[C@]1(C)CCc1ccccc12 | – | > 100 | – | – | – | > 100 µM | – | > 100 µM | – | > 100 µM | – | – | – | > 100 µM | > 100 | – | > 100
18 | CCOC(=O)[C@@H](C)C[C@H](Cc1ccccc1)NC(=O)c1csc([C@@H](C[C@H](C(C)C)N(C)C(=O)CNC(=O)[C@H]2CCCCN2C)OC(C)=O)n1 | 5.07 µM | > 14.3 | 0.58 | > 9.17 µM | 1.74 | 5.46 µM | 0.621 | 6.85 µM | 0.733 | > 14.3 µM | 1.5 | > 8.43 | 0.612 | > 6.66 µM | – | – | –
19 | Cc1ccc(-n2c3nc(=O)n(C)c(=O)c-3nc3ccccc32)c(C)c1 | – | 52.5 | – | – | – | 26.4 µM | – | 22.9 µM | – | 19.1 µM | – | – | – | 15.3 µM | 24.8 | – | 26
